Measured values: US8158803B2, “Heterocyclic antiviral compounds” (Roche Palo Alto LLC, priority 2009, dated 2012)
Like-named read-outs stand apart in the source and are kept apart here.

Experiments:
[1] = molecular target: T1, HCV polymerase (NS5B570n-Con1) (Hepatitis C virus genotype 1b, UniProt Q9WMX2); experiment: HCV NS5B RNA polymerase activity assay; type: biochemical, HCV Con1 strain
T1 construct: contains a 21 amino acid deletion at the C-terminus relative to the full-length HCV polymerase; 6-histidine (N); made in house; host or cells: E. coli BL21(DE) pLysS, plasmid pET17b
Description: The enzymatic activity of HCV polymerase (NS5B570n-Con1) was measured as the incorporation of radiolabeled nucleotide monophosphates into acid insoluble RNA products. Unincorporated radiolabeled substrate was removed by filtration and scintillant was added to the washed and dried filter plate containing radiolabeled RNA product. The amount of RNA product generated by NS5B570-Con1 at the end of the reaction was directly proportional to the amount of light emitted by the scintillant.
The N-terminal 6-histidine tagged HCV polymerase, derived from HCV Con1 strain, genotype 1b (NS5B570n-Con1) contains a 21 amino acid deletion at the C-terminus relative to the full-length HCV polymerase and was purified from E. coli strain BL21(DE) pLysS. The construct, containing the coding sequence of HCV NS5B Con1 (GenBank accession number AJ242654) was inserted into the plasmid construct pET17b, downstream of a T7 promoter expression cassette and transformed into E. coli. A single colony was grown overnight as a starter culture and later used inoculate 10 L of LB media supplemented with 100 μg/mL ampicillin at 37° C. Protein expression was induced by the addition of 0.25 mM isopropyl-β-D-thiogalactopyranoside (IPTG) when optical density at […] of the culture was between 0.6 and 0.8 and cells were harvested after 16 to 18 h at 30° C. NS5B570n-Con1 was purified to homogeneity using a three-step protocol including subsequent column chromatography on Ni-NTA, SP-Sepharose HP and Superdex 75 resins.
Reaction mixtures were assembled in 96-well filter plates (cat #MADVN0B, Millipore Co.) and incubated for 2 h at 30° C. Reactions were stopped by addition of 10% final (v/v) trichloroacetic acid and incubated for 40 min at 4° C. […]
The amount of light emitted from the scintillant was converted to counts per minute (CPM) on a Topcount® plate reader (Perkin-Elmer, Energy Range: Low, Efficiency Mode Normal, Count Time: 1 min, Background Subtract: none, Cross talk reduction: Off).
Data was analyzed in Excel® (Microsoft) and ActivityBase® (Idbs®). […] All data was expressed as a percentage of the positive control. […]

[2] = system: genotype 1b HCV replicon in Huh7 cell line 2209-23; experiment: HCV replicon assay (Renilla luciferase reporter); type: cell-based; details: 2209-23 cells, three days incubation
in vitro = details: human
HCV = details: cited from earlier work
[3] = system: HCV replicon cells (2209-23); details: read-out: Cytotoxicity CC50; 2209-23 cells, WST-1

With CC(C)(C)c1cc(-c2ccc[nH]c2=O)cc(C2CC2c2ccc(NS(C)(=O)=O)cc2)c1 (centres unmarked) [Compound I-1, N-(4-{2-[3-tert-Butyl-5-(2-oxo-1,2-dihydro-pyridin-3-yl)-phenyl]-cyclopropyl}-phenyl)-methanesulfonamide] the melting point was 162 to 164 °C and the IC50 [1] was 0.021 µM.

For COc1c(C2CC2c2ccc(NS(C)(=O)=O)cc2)cc(-c2ccc[nH]c2=O)cc1C(C)(C)C (centres unmarked) [Compound I-2, N-(4-{2-[3-tert-Butyl-2-methoxy-5-(2-oxo-1,2-dihydro-pyridin-3-yl)-phenyl]-cyclopropyl}-phenyl)-methanesulfonamide], the IC50 ([2]; Hepatitis C virus, Huh-7, 72 h) was 0.109 µM and the CC50 (in vitro) was 15 µM.

Compound CC(C)(C)c1cc(-c2ccc[nH]c2=O)c(O)c(C2CC2c2ccc(NS(C)(=O)=O)cc2)c1 (centres unmarked) [Compound I-3, N-(4-{2-[5-tert-Butyl-2-hydroxy-3-(2-oxo-1,2-dihydro-pyridin-3-yl)-phenyl]-cyclopropyl}-phenyl)-methanesulfonamide] has a melting point of 148 to 150 °C and an IC50 [1] of 0.012 µM.

In the case of NC(=O)c1ncn([C@@H]2O[C@H](CO)[C@@H](O)[C@H]2O)n1 [ribavirin, 1-((2R,3R,4S,5R)-3,4-Dihydroxy-5-hydroxymethyl-tetrahydro-furan-2-yl)-1H-[1,2,4]triazole-3-carboxylic acid amide], the toxicity (HCV; human, in vivo) is listed as “exhibits significant toxicity and is known to induce anemia” and the “patients with serum amino transferase levels reduced to normal” value (HCV; monotherapy) is listed as 40%.

Work on “N-(6-{2-[3-tert-Butyl-6-hydroxy-2-methoxy-5-(2-oxo-1,2-dihydro-pyridin-3-yl)-phenyl]-cyclopropyl}-pyridin-3-yl)-methanesulfonamide [Compound I-4]” yielded an IC50 [2] of 0.078 µM, an IC50 ([1]; NS5B570n-Con1, genotype 1b, read-out: IC50 HCV Polymerase Assay) of 0.008 µM and a CC50 [3] of 32.8 µM.
